Measurements as given in the NIST ThermoML archive (doi:10.1016/j.fluid.2011.08.009).
± gives the expanded uncertainty stated by the source.

Conditions: Liquid, Closed cell (Static) method

vapor or sublimation pressure (329.22 K) [kPa] | vapor or sublimation pressure (342.18 K) [kPa] | vapor or sublimation pressure (352.68 K) [kPa] | vapor or sublimation pressure (313.17 K) [kPa] | vapor or sublimation pressure (342.83 K) [kPa] | vapor or sublimation pressure (323.18 K) [kPa] | SMILES
65.63 ± 0.67 | – | – | – | – | – | CCCCCC [hexane]
– | 0.36 ± 0.1 | 0.75 ± 0.1 | – | – | – | CCCCCCCCCCCC [dodecane]
– | – | 49.8 ± 0.4 | 6.99 ± 0.19 | 31.45 ± 0.24 | – | CCCO [propan-1-ol]
14.55 ± 0.21 | – | 44.66 ± 0.35 | – | 28.43 ± 0.28 | 10.74 ± 0.16 | CCC(C)O (stereo not drawn) [butan-2-ol]
– | – | – | 7.36 ± 0.14 | 30.65 ± 0.22 | 12.18 ± 0.19 | O [water]
